Experimental data as given in ChEMBL document CHEMBL1949608, “Induction of apoptosis in HL-60 cells through the ROS-mediated mitochondrial pathway by ramentaceone from Drosera aliciae” (J Nat Prod, 2012).
The source made the active and inactive calls. No cut-off for these calls is given here.

Columns and labels:
HL-60 [1] = experiment: Cell cycle arrest in human HL60 cells assessed as accumulation at sub-G1 phase after 12 to 24 hrs using propidium iodide staining by flow cytometry; type: functional, cell-based
HL-60 [2] = experiment: Induction of apoptosis in human HL60 cells assessed as increase in cytochrome c release from mitochondria to cytosol after 24 hrs by Western blotting; type: functional, cell-based
HL-60 [3] = experiment: Induction of apoptosis in human HL60 cells assessed as formation of membrane blebbing at 10 uM after 24 hrs by fluorescence microscopic analysis; type: functional, cell-based
HL-60 [4] = experiment: Induction of apoptosis in human HL60 cells assessed as loss of mitochondrial membrane potential using CMTMRos after 24 hrs by flow cytometry; type: functional, cell-based
HL-60 [5] = experiment: Induction of apoptosis in human HL60 cells assessed as formation of apoptotic body at 10 uM after 24 hrs by fluorescence microscopic analysis; type: functional, cell-based
HL-60 [6] = experiment: Induction of apoptosis in human HL60 cells assessed as increase of caspase-3-mediated Ac-DEVD-pNA cleavage at 10 uM after >12 hrs; type: functional, cell-based
HL-60 [7] = experiment: Induction of apoptosis in human HL60 cells assessed as increase in Bax protein level after 24 hrs by Western blotting; type: functional, cell-based
HL-60 [8] = experiment: Induction of apoptosis in human HL60 cells assessed as increase of caspase-3-mediated Ac-DEVD-pNA cleavage at 10 uM after 12 hrs; type: functional, cell-based
HL-60 [9] = experiment: Induction of apoptosis in human HL60 cells assessed as formation of cell shrinkage at 10 uM after 24 hrs by fluorescence microscopic analysis; type: functional, cell-based
HL-60 [10] = experiment: Cell cycle arrest in human HL60 cells assessed as accumulation at sub-G1 phase at 10 uM after 24 hrs using propidium iodide staining by flow cytometry (reference value: 6.6%); type: functional
HL-60 [11] = experiment: Cytotoxicity against human HL60 cells after 24 hrs by MTT assay; type: functional, cell-based
HL-60 [12] = experiment: Cell cycle arrest in human HL60 cells assessed as accumulation at G0/G1 phase at 10 uM after 24 hrs using propidium iodide staining by flow cytometry; type: functional, cell-based
HL-60 [13] = experiment: Cell cycle arrest in human HL60 cells assessed as accumulation at sub-G1 phase at 10 uM after 24 hrs using propidium iodide staining by flow cytometry in presence of N-acetylcysteine; type: functional
HL-60 [14] = experiment: Cell cycle arrest in human HL60 cells assessed as accumulation at sub-G1 phase at 5 uM after 12 hrs using propidium iodide staining by flow cytometry (reference value: 5.2%); type: functional
HL-60 [15] = experiment: Induction of apoptosis in human HL60 cells assessed as increase in Bak protein level after 24 hrs by Western blotting; type: functional, cell-based
HL-60 [16] = experiment: Cell cycle arrest in human HL60 cells assessed as accumulation at sub-G1 phase at 5 uM after 24 hrs using propidium iodide staining by flow cytometry (reference value: 6.6%); type: functional
HL-60 [17] = experiment: Cell cycle arrest in human HL60 cells assessed as accumulation at G2/M phase at 10 uM after 24 hrs using propidium iodide staining by flow cytometry; type: functional, cell-based
HL-60 [18] = experiment: Induction of apoptosis in human HL60 cells assessed as formation of chromatin condensation at 10 uM after 24 hrs by Hoechst 33342 and propidium iodide staining; type: functional, cell-based
HL-60 [19] = experiment: Cell cycle arrest in human HL60 cells assessed as accumulation at sub-G1 phase at 10 uM after 12 hrs using propidium iodide staining by flow cytometry (reference value: 5.2%); type: functional
HL-60 [20] = experiment: Induction of apoptosis in human HL60 cells assessed as increase of ROS production using H2DCFDA after 3 hrs by flow cytometry; type: functional, cell-based
HL-60 [21] = experiment: Induction of apoptosis in human HL60 cells assessed as decrease in Bcl-2 protein level at 5 to 10 uM after 24 hrs by Western blotting; type: functional, cell-based
HL-60 [22] = experiment: Cell cycle arrest in human HL60 cells assessed as accumulation at sub-G1 phase at 5 to 10 uM using propidium iodide staining by flow cytometry; type: functional, cell-based; settings: TDE = time-dependent effect
HL-60 [23] = experiment: Induction of apoptosis in human HL60 cells assessed as increase of ROS production using H2DCFDA after 3 hrs by flow cytometry in presence of N-acetylcysteine; type: functional, cell-based

Cc1cc(O)c2c(c1)C(=O)C=CC2=O [RAMENTACEONE]
Activity (HL-60 [1]): Dose-dependent effect | Activity (HL-60 [2]): Dose-dependent effect | Activity (HL-60 [3]): Active | Activity (HL-60 [4]): Dose-dependent effect | Activity (HL-60 [5]): Active | Activity (HL-60 [6]): inactive | Activity (HL-60 [7]): Dose-dependent effect | Activity (HL-60 [8]): Active | Activity (HL-60 [9]): Active | Activity (HL-60 [10]): 27.5% | Activity (HL-60 [11]): Dose-dependent effect | IC50 (HL-60 [11]; HL-60, 24 h): 8.75 µM | Activity (HL-60 [12]): Active | Activity (HL-60 [13]): 12.3% | Activity (HL-60 [14]): 10.3% | Activity (HL-60 [15]): Dose-dependent effect | Activity (HL-60 [16]): 12.6% | Activity (HL-60 [17]): Active | Activity (HL-60 [18]): Active | Activity (HL-60 [19]): 17.1% | Activity (HL-60 [20]): Dose-dependent effect | Activity (HL-60 [21]): Active | Activity (HL-60 [22]): tde | Activity (HL-60 [23]): inactive
